# Data as given in patent publication US20240174744A1, “METHODS OF TREATMENT USING PROTEIN BINDERS TO IRHOM2 EPITOPES” (SCIRHOM GMBH, priority 2021, published 2024).
# System: PMA-induced release of HB-EGF from PBMCs from patients suffering from rheumatoid arthritis
# Assay: ELISA-based HB-EGF release assay, PBMCs from RA-patients
# Assay type: cell-based
# Details: Homo sapiens; chimeric antibodies (CHO) 1 μg/ml; Batimastat 10 μM; PMA 25 ng/ml, 6 hours
# Method: In contrast to Example 35, where the inhibitory effects of the antibodies of the present disclosure on PMA-induced release of endogenous HB-EGF from primary human material obtained from healthy donors using peripheral blood mononuclear cells (PBMCs) were tested, this analysis was conducted to analyze the inhibitory effects of the antibodies of the present disclosure on PMA-induced release of endogenous HB-EGF from primary human material obtained from patients suffering from rheumatoid arthritis (RA-patients).
# In brief, on day 1, Nunc black MaxiSorp® 96-well plates (Thermo Fisher Scientific, USA) were coated overnight with 100 μl per well of rat anti-human HB-EGF capture antibody (provided as part of the DuoSet ELISA kit) at 2 μg/ml TBS at 4° C. On day 2, the capture antibody solution was removed and MaxiSorp® plates were blocked with 300 μl per well of TBS, 1% BSA at room temperature for 3 hours. […]
# To avoid drying-up, 30 μl TBS were added to each well of the MaxiSorp® plates immediately, followed by the transfer of 70 μl cell-free supernatant per sample. […] Using an infinite M1000 (Tecan Group, Switzerland) microplate reader, the fluorescence of each well was collected at an excitation wavelength of 435 nm and an emission wavelength of 555 nm.
smiles,measurement,value
CNC(=O)[C@H](Cc1ccccc1)NC(=O)[C@H](CC(C)C)[C@H](CSc1cccs1)C(=O)NO [Batimastat],inhibition at 10 µM,102%
